Structures are written as SMILES. Where two headings read alike, the source gives them in different places.

What all share (assay type): cell-based
The test system of one experiment is A-549. Briefly: Inhibition of cells growth by colorimetric assay (SRB), A-549. To be noted: for GI50 / LC50 (concentration for 50% cell killing): Homo sapiens, A549, 48 h; for GI50: read-out: GI50 A-549; for LC50 (concentration for 50% cell killing): read-out: LC50 A-549, A-549. The method in brief:
(§1)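 48 h SRB cytotoxicity assay; compound range 10–10^−8 μg/ml; seeding 5×10^3 cells/well, 18 h pre-attachment; OD 490 nm; GI, TGI, LC from triplicate means ± SD.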

The test system of a further experiment is HT-29. In words: Inhibition of cells growth by colorimetric assay (SRB), HT-29. To be noted: for GI50 / LC50 (concentration for 50% cell killing): Homo sapiens, HT-29, 48 h; for GI50: read-out: GI50 HT-29; for LC50 (concentration for 50% cell killing): read-out: LC50 HT-29, HT-29. The method in brief: as §1
The test system of another experiment is HMEC1. Briefly: Inhibition of cells growth by colorimetric assay (SRB), HMEC1. Here is the method:
(§2) 2°.—Inhibition of Cells Growth by Colorimetric Assay.
(§3) A colorimetric type of assay, using sulforhodamine B (SRB) reaction has been adapted for a quantitative measurement of cell growth and viability [following the technique described by Philip Skehan, et al. (1990), New colorimetric cytotoxicity assay for anticancer drug screening, J. Natl. Cancer Inst., 82:1107-1112]
(§4) This form of the assay employs 96 well cell culture microplates of 9 mm diameter (Faircloth, 1988; Mosmann, 1983). Most of the cell lines are obtained from American Type Culture Collection (ATCC) derived from different human cancer types.
(§5) Cells are maintained in RPMI 1640 10% FBS, supplemented with 0.1 g/l penicillin and 0.1 g/l streptomycin sulfate and then incubated at 37° C., 5% CO2 and 98% humidity. For the experiments, cells were harvested from subconfluent cultures using trypsin and resuspended in fresh medium before plating.
(§6) Cells are seeded in 96 well microtiter plates, at 5×10^3 cells per well in aliquots of 195 μl medium, and they are allowed to attach to the plate surface by growing in drug free medium for 18 hours. Afterward, samples are added in aliquots of 5 μl in a ranging from 10 to 10^−8 μg/ml, dissolved in DMSO/EtOH/PBS (0.5:0.5:99). After 48 hours exposure, the antitumor effect are measured by the SRB methodology: cells are fixed by adding 50 μl of cold 50% (wt/vol) trichloroacetic acid (TCA) and incubating for 60 minutes at 4° C. Plates are washed with deionized water and dried. One hundred μl of SRB solution (0.4% wt/vol in 1% acetic acid) is added to each microtiter well and incubated for 10 minutes at room temperature. Unbound SRB is removed by washing with 1% acetic acid. Plates are air dried and bound stain is solubilized with Tris buffer. Optical densities are read on a automated spectrophotometric plate reader at a single wavelength of 490 nm.
(§7) The values for mean+/−SD of data from triplicate wells are calculated. Some parameters for cellular responses can be calculated: GI=growth inhibition, TGI=total growth inhibition (cytostatic effect) and LC=cell killing (cytotoxic effect).
(§8) Obtained results may predict the usefulness of a certain drug as a potential cancer treatment. For this technique, compounds which show GI50 values smaller than 10 μg/ml are selected to continue with further studies. GI50's data allow to predict that not only could a drug be cystostatic, but also it could have a potential in terms of tumor reduction.

A further experiment concerns K-562. In words: Inhibition of cells growth by colorimetric assay (SRB), K-562. As to conditions: SRB, 48 hours exposure. Here is the method:
as §2, §3, §4, §5, §6, §7, §8

Another experiment relates to SK-MEL-28. Briefly: Inhibition of cells growth by colorimetric assay (SRB), SK-MEL-28. As to conditions: SRB, 48 hours exposure. As to the method:
as §2, §3, §4, §5, §6, §7, §8

For the next experiment, the system named is LoVo. In words: Inhibition of cells growth by colorimetric assay (SRB), LoVo. To be noted: SRB, 48 hours exposure. As to the method: as §2, §3, §4, §5, §6, §7, §8
In a further experiment the test system is LoVo-Dox. Briefly: Inhibition of cells growth by colorimetric assay (SRB), LoVo-Dox. To be noted: SRB, 48 hours exposure. As to the method:
as §2, §3, §4, §5, §6, §7, §8

A further experiment relates to DU-145. In words: Inhibition of cells growth by colorimetric assay (SRB), DU-145. As to conditions: SRB, 48 hours exposure. As to the method: as §2, §3, §4, §5, §6, §7, §8
A further experiment relates to SK-BR-3. Briefly: Inhibition of cells growth by colorimetric assay (SRB), SK-BR-3. To be noted: SRB, 48 hours exposure. Here is the method: as §2, §3, §4, §5, §6, §7, §8
A further experiment deals with IGROV-1. In words: Inhibition of cells growth by colorimetric assay (SRB), IGROV-1. As to conditions: SRB, 48 hours exposure. As to the method:
as §2, §3, §4, §5, §6, §7, §8

For the next experiment, the system named is IGROV-ET. In words: Inhibition of cells growth by colorimetric assay (SRB), IGROV-ET. To be noted: SRB, 48 hours exposure. Here is the method:
as §2, §3, §4, §5, §6, §7, §8

The next experiment deals with SK-OV-3. In words: Inhibition of cells growth by colorimetric assay (SRB), SK-OV-3. To be noted: SRB, 48 hours exposure. Here is the method: as §2, §3, §4, §5, §6, §7, §8
The subject of the next experiment is PANC-1. In words: Inhibition of cells growth by colorimetric assay (SRB), PANC-1. To be noted: SRB, 48 hours exposure. As to the method: as §2, §3, §4, §5, §6, §7, §8

The term GI50 denotes the concentration that inhibits growth by half. By LC50 is commonly meant the concentration lethal to half of the exposed cells or organisms. For the compound `COc1cc2c(cc1OC(=O)OC(C)(C)C)CCN[C@]21CS[C@@H]2c3c(OC(C)=O)c(C)c4c(c3[C@H](COC1=O)N1C2[C@H]2c3c(cc(C)c(OC)c3OC(C)C)C[C@@H]([C@@H]1C#N)N2C)OCO4` (stereo partly drawn) [Compound 46], the “TGI A-549” value with A-549 (A-549, SRB, 48 hours exposure) worked out at 4.06E-07. In addition, the GI50 turned out to be 179 nM in the experiment with A-549; 398 nM in the experiment on HT-29; 152 nM with HMEC1 (Homo sapiens, HMEC-1, 48 h, read-out: GI50 HMEC-1). Moreover, the LC50 (concentration for 50% cell killing) in the experiment on A-549 (SRB, 48 hours exposure) worked out at 927 nM; in the experiment on HT-29 (SRB, 48 hours exposure), 11000 nM. In addition, the “TGI HT-29” value in the experiment on HT-29 (HT-29, SRB, 48 hours exposure) turned out to be 1.95E-06. Also, the “TGI HMEC-1” value in the experiment on HMEC1 (HMEC-1, SRB, 48 hours exposure) came to 5.18E-07. Besides, the LC50 in the experiment with HMEC1 (Homo sapiens, HMEC-1, 48 h, read-out: LC50 HMEC-1, HMEC-1, SRB, 48 hours exposure) turned out to be 11000 nM.

Consider `COc1cc2c(cc1O)CCN[C@]21CS[C@@H]2c3c(OC(C)=O)c(C)c4c(c3[C@H](COC1=O)N1C2[C@H]2c3c(cc(C)c(OC)c3OC(C)C)C[C@@H]([C@@H]1C#N)N2C)OCO4` (stereo partly drawn) [Compound 48], for which the GI50 in the experiment on K-562 (Homo sapiens, K562, 48 h, K-562, read-out: GI50 K-562) was 223 nM; in the experiment with A-549 (A-549, SRB, 48 hours exposure), 272 nM; in the experiment with SK-MEL-28 (Homo sapiens, SK-MEL-28, 48 h, MEL-28, read-out: GI50 MEL-28), 1100 nM; in the experiment with HT-29 (HT-29, SRB, 48 hours exposure), 1970 nM; in the experiment with LoVo (Homo sapiens, LoVo, 48 h, LOVO, read-out: GI50 LOVO), 713 nM; in the experiment with LoVo-Dox (Homo sapiens, 48 h, LOVO-DOX, read-out: GI50 LOVO-DOX), 790 nM. Besides, the concentration for 50% growth inhibition (GI50) turned out to be 614 nM with DU-145 (Homo sapiens, DU-145, 48 h, DU-145, read-out: GI50 DU-145); 443 nM in the experiment on SK-BR-3 (Homo sapiens, SK-BR-3, 48 h, SK-BR3, read-out: GI50 SK-BR3); 439 nM in the experiment on IGROV-1 (Homo sapiens, IGROV-1, 48 h, IGROV, read-out: GI50 IGROV); 678 nM in the experiment on IGROV-ET (Homo sapiens, 48 h, IGROV-ET, read-out: GI50 IGROV-ET); 614 nM in the experiment with SK-OV-3 (Homo sapiens, SK-OV-3, 48 h, SK-OV3, read-out: GI50 SK-OV3); 910 nM in the experiment on PANC-1 (Homo sapiens, PANC-1, 48 h, PANC-1, read-out: GI50 PANC-1). Besides, the LC50 (50% cell killing) with K-562 (Homo sapiens, K562, 48 h, read-out: LC50 K-562, K-562) was determined as 1230 nM. Besides, in the experiment on K-562 (K-562), the “TGI K-562” value was 5.47E-07. Moreover, the “TGI A-549” value in the experiment on A-549 (A-549, SRB, 48 hours exposure) is on record as 7.50E-07. Further, the LC50 (concentration for 50% cell killing) in the experiment on A-549 (SRB, 48 hours exposure) was determined as 3890 nM; with HT-29 (SRB, 48 hours exposure), 12300 nM; in the experiment with LoVo (Homo sapiens, LoVo, 48 h, read-out: LC50 LOVO, LOVO), 12300 nM. Besides, the CC50 was 7060 nM in the experiment on SK-MEL-28 (Homo sapiens, SK-MEL-28, 48 h, read-out: LC50 MEL-28, MEL-28); 12300 nM in the experiment on LoVo-Dox (Homo sapiens, 48 h, read-out: LC50 LOVO-DOX, LOVO-DOX); 12300 nM in the experiment on DU-145 (Homo sapiens, DU-145, 48 h, read-out: LC50 DU-145, DU-145); 6970 nM in the experiment on SK-BR-3 (Homo sapiens, SK-BR-3, 48 h, read-out: LC50 SK-BR3, SK-BR3); 7980 nM in the experiment with IGROV-1 (Homo sapiens, IGROV-1, 48 h, read-out: LC50 IGROV, IGROV); 12300 nM in the experiment on IGROV-ET (Homo sapiens, 48 h, read-out: LC50 IGROV-ET, IGROV-ET). Moreover, in the experiment on SK-MEL-28 (MEL-28), the “TGI MEL-28” value was found to be 2.87E-06. Besides, the “TGI HT-29” value with HT-29 (HT-29, SRB, 48 hours exposure) was 1.23E-05. Further, the “TGI LOVO” value in the experiment with LoVo (LOVO) is listed as 2.95E-06. In addition, in the experiment with LoVo-Dox (LOVO-DOX), the “TGI LOVO-DOX” value is 4.18E-06. In the experiment on DU-145 (DU-145), the “TGI DU-145” value was 3.20E-06. In addition, the “TGI SK-BR3” value with SK-BR-3 (SK-BR3) worked out at 1.54E-06. For the same compound, in the experiment with IGROV-1 (IGROV), the “TGI IGROV” value turned out to be 1.78E-06. Moreover, the “TGI IGROV-ET” value in the experiment on IGROV-ET (IGROV-ET) was determined as 2.93E-06. Moreover, in the experiment with SK-OV-3 (Homo sapiens, SK-OV-3, 48 h, read-out: LC50 SK-OV3, SK-OV3), the LC50 stood at 12300 nM. The “TGI SK-OV3” value in the experiment with SK-OV-3 (SK-OV3) was 3.40E-06. Moreover, the LC50 (concentration for 50% net cell kill) with PANC-1 (Homo sapiens, PANC-1, 48 h, read-out: LC50 PANC-1, PANC-1) was 12300 nM. Further, in the experiment with PANC-1 (PANC-1), the “TGI PANC-1” value came out at 5.10E-06.

For the origin of these results see patent US7759345B2, “Antitumoral derivatives of ET-743” (priority 2001, dated 2010).
